test system: KRas G12C mutant; assay: Ras GTP binding domain inhibition assay (Cy3-GTP/Cy5-GTP competition); design: species or system human; conditions: 20 μM; with SOS
Procedure, shortened: (§1)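 First, His-tagged protein is coated on nickel wells overnight at 4 °C. Next, compound (20 μM single point or serial dilution) is added for 3 h at room temperature, with or without Sos exchange factor in the last hour. Finally, 100 nM labelled GTP binds for 45 min and retained signal is measured.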

Structure (SMILES) | KRas G12C mutant + SOS: % inh.
COCCNc1nc(-c2nccn2C)nc2sc(-c3cc(OC)ccc3Cl)c(-c3ccccc3)c12 [drawing 871] | A (1-25% inhibition)
COCCNc1nc(-c2nccn2C)nc2sc(-c3cccc(OC)c3Cl)c(-c3ccccc3)c12 [drawing 872] | D (76-100% inhibition)
COCCNc1nc(-c2cn(C)cn2)nc2sc(-c3ccccc3Cl)c(-c3ccc(OC)cc3)c12 [drawing 873] | D (76-100% inhibition)
COCCNc1nc(-c2nccn2C)nc2sc(-c3cccc(OC)c3)c(-c3ccc(OC)cc3)c12 [drawing 875] | D (76-100% inhibition)

Next, values leading:

KRas G12C mutant + SOS: % inh. | Structure (SMILES)
D (76-100% inhibition) | COCCNc1nc(-c2nccn2C)nc2sc(-c3cccc(OC)c3Cl)c(-c3ccc(OC)cc3)c12 [drawing 874]
D (76-100% inhibition) | COCCNc1nc(-c2nccn2C)nc2sc(-c3ccccc3Cl)c(-c3ccc(OC)cc3)c12 [drawing 876]

same assay, conditions: 20 μM; without SOS

Structure (SMILES) | KRas G12C mutant: % inh.
COCCNc1nc(-c2nccn2C)nc2sc(-c3cc(OC)ccc3Cl)c(-c3ccccc3)c12 [drawing 871] | 0 (0% inhibition)
COCCNc1nc(-c2nccn2C)nc2sc(-c3cccc(OC)c3Cl)c(-c3ccccc3)c12 [drawing 872] | C (51-75% inhibition)
COCCNc1nc(-c2cn(C)cn2)nc2sc(-c3ccccc3Cl)c(-c3ccc(OC)cc3)c12 [drawing 873] | C (51-75% inhibition)
COCCNc1nc(-c2nccn2C)nc2sc(-c3cccc(OC)c3)c(-c3ccc(OC)cc3)c12 [drawing 875] | C (51-75% inhibition)

More lines, now with the values ahead:

KRas G12C mutant: % inh. | Structure (SMILES)
B (26-50% inhibition) | COCCNc1nc(-c2nccn2C)nc2sc(-c3cccc(OC)c3Cl)c(-c3ccc(OC)cc3)c12 [drawing 874]
B (26-50% inhibition) | COCCNc1nc(-c2nccn2C)nc2sc(-c3ccccc3Cl)c(-c3ccc(OC)cc3)c12 [drawing 876]

test system: KRas Q61H mutant; assay: as above; design: species or system human; conditions: 20 μM; with SOS
Procedure, shortened: as §1

Structure (SMILES) | KRas Q61H mutant + SOS: % inh.
COCCNc1nc(-c2nccn2C)nc2sc(-c3cc(OC)ccc3Cl)c(-c3ccccc3)c12 [drawing 871] | A (1-25% inhibition)
COCCNc1nc(-c2nccn2C)nc2sc(-c3cccc(OC)c3Cl)c(-c3ccccc3)c12 [drawing 872] | D (76-100% inhibition)
COCCNc1nc(-c2cn(C)cn2)nc2sc(-c3ccccc3Cl)c(-c3ccc(OC)cc3)c12 [drawing 873] | D (76-100% inhibition)
COCCNc1nc(-c2nccn2C)nc2sc(-c3cccc(OC)c3)c(-c3ccc(OC)cc3)c12 [drawing 875] | D (76-100% inhibition)

Results, then the compound that gave them:

KRas Q61H mutant + SOS: % inh. | Structure (SMILES)
D (76-100% inhibition) | COCCNc1nc(-c2nccn2C)nc2sc(-c3cccc(OC)c3Cl)c(-c3ccc(OC)cc3)c12 [drawing 874]
D (76-100% inhibition) | COCCNc1nc(-c2nccn2C)nc2sc(-c3ccccc3Cl)c(-c3ccc(OC)cc3)c12 [drawing 876]

same assay, conditions: 20 μM; without SOS

Structure (SMILES) | KRas Q61H mutant: % inh.
COCCNc1nc(-c2nccn2C)nc2sc(-c3cc(OC)ccc3Cl)c(-c3ccccc3)c12 [drawing 871] | C (51-75% inhibition)
COCCNc1nc(-c2nccn2C)nc2sc(-c3cccc(OC)c3Cl)c(-c3ccccc3)c12 [drawing 872] | B (26-50% inhibition)
COCCNc1nc(-c2cn(C)cn2)nc2sc(-c3ccccc3Cl)c(-c3ccc(OC)cc3)c12 [drawing 873] | B (26-50% inhibition)
COCCNc1nc(-c2nccn2C)nc2sc(-c3cccc(OC)c3)c(-c3ccc(OC)cc3)c12 [drawing 875] | B (26-50% inhibition)

Second part, the compound after the results:

KRas Q61H mutant: % inh. | Structure (SMILES)
A (1-25% inhibition) | COCCNc1nc(-c2nccn2C)nc2sc(-c3cccc(OC)c3Cl)c(-c3ccc(OC)cc3)c12 [drawing 874]
B (26-50% inhibition) | COCCNc1nc(-c2nccn2C)nc2sc(-c3ccccc3Cl)c(-c3ccc(OC)cc3)c12 [drawing 876]

test system: KRas wild type; assay: as above; design: species or system human; conditions: 20 μM; with SOS
Procedure, shortened: as §1

Structure (SMILES) | KRas wild type + SOS: % inh.
COCCNc1nc(-c2nccn2C)nc2sc(-c3cc(OC)ccc3Cl)c(-c3ccccc3)c12 [drawing 871] | A (1-25% inhibition)
COCCNc1nc(-c2nccn2C)nc2sc(-c3cccc(OC)c3Cl)c(-c3ccccc3)c12 [drawing 872] | D (76-100% inhibition)
COCCNc1nc(-c2cn(C)cn2)nc2sc(-c3ccccc3Cl)c(-c3ccc(OC)cc3)c12 [drawing 873] | D (76-100% inhibition)
COCCNc1nc(-c2nccn2C)nc2sc(-c3cccc(OC)c3)c(-c3ccc(OC)cc3)c12 [drawing 875] | D (76-100% inhibition)

The next lines start with the values.

KRas wild type + SOS: % inh. | Structure (SMILES)
D (76-100% inhibition) | COCCNc1nc(-c2nccn2C)nc2sc(-c3cccc(OC)c3Cl)c(-c3ccc(OC)cc3)c12 [drawing 874]
D (76-100% inhibition) | COCCNc1nc(-c2nccn2C)nc2sc(-c3ccccc3Cl)c(-c3ccc(OC)cc3)c12 [drawing 876]

same assay, conditions: 20 μM; without SOS

Structure (SMILES) | KRas wild type: % inh.
COCCNc1nc(-c2nccn2C)nc2sc(-c3cc(OC)ccc3Cl)c(-c3ccccc3)c12 [drawing 871] | B (26-50% inhibition)
COCCNc1nc(-c2nccn2C)nc2sc(-c3cccc(OC)c3Cl)c(-c3ccccc3)c12 [drawing 872] | B (26-50% inhibition)
COCCNc1nc(-c2cn(C)cn2)nc2sc(-c3ccccc3Cl)c(-c3ccc(OC)cc3)c12 [drawing 873] | A (1-25% inhibition)
COCCNc1nc(-c2nccn2C)nc2sc(-c3cccc(OC)c3)c(-c3ccc(OC)cc3)c12 [drawing 875] | B (26-50% inhibition)

Continued, values first:

KRas wild type: % inh. | Structure (SMILES)
B (26-50% inhibition) | COCCNc1nc(-c2nccn2C)nc2sc(-c3cccc(OC)c3Cl)c(-c3ccc(OC)cc3)c12 [drawing 874]
B (26-50% inhibition) | COCCNc1nc(-c2nccn2C)nc2sc(-c3ccccc3Cl)c(-c3ccc(OC)cc3)c12 [drawing 876]

target: T1, KRas G12D mutant (Homo sapiens, UniProt P01116, G12D); assay: as above; conditions: 20 μM; with SOS; read-out: KRas G-12D mutant + SOS: % inh.
T1 construct: fused on or other part: His tag, used for capture on nickel-coated plates
Procedure, shortened: as §1

Structure (SMILES) | inhibition at 20 µM [%]
COCCNc1nc(-c2nccn2C)nc2sc(-c3cc(OC)ccc3Cl)c(-c3ccccc3)c12 [drawing 871] | 1 to 25
COCCNc1nc(-c2nccn2C)nc2sc(-c3cccc(OC)c3Cl)c(-c3ccccc3)c12 [drawing 872] | 76 to 100
COCCNc1nc(-c2cn(C)cn2)nc2sc(-c3ccccc3Cl)c(-c3ccc(OC)cc3)c12 [drawing 873] | 76 to 100
COCCNc1nc(-c2nccn2C)nc2sc(-c3cccc(OC)c3)c(-c3ccc(OC)cc3)c12 [drawing 875] | 76 to 100

Results, then the compound that gave them:

inhibition at 20 µM [%] | Structure (SMILES)
51 to 75 | COCCNc1nc(-c2nccn2C)nc2sc(-c3cccc(OC)c3Cl)c(-c3ccc(OC)cc3)c12 [drawing 874]
76 to 100 | COCCNc1nc(-c2nccn2C)nc2sc(-c3ccccc3Cl)c(-c3ccc(OC)cc3)c12 [drawing 876]

same assay, conditions: 20 μM; without SOS; read-out: KRas G12D mutant: % inh.

Structure (SMILES) | inhibition at 20 µM [%]
COCCNc1nc(-c2nccn2C)nc2sc(-c3cc(OC)ccc3Cl)c(-c3ccccc3)c12 [drawing 871] | 26 to 50
COCCNc1nc(-c2nccn2C)nc2sc(-c3cccc(OC)c3Cl)c(-c3ccccc3)c12 [drawing 872] | 1 to 25
COCCNc1nc(-c2cn(C)cn2)nc2sc(-c3ccccc3Cl)c(-c3ccc(OC)cc3)c12 [drawing 873] | 26 to 50
COCCNc1nc(-c2nccn2C)nc2sc(-c3cccc(OC)c3)c(-c3ccc(OC)cc3)c12 [drawing 875] | 51 to 75

Other lines, results leading:

inhibition at 20 µM [%] | Structure (SMILES)
1 to 25 | COCCNc1nc(-c2nccn2C)nc2sc(-c3cccc(OC)c3Cl)c(-c3ccc(OC)cc3)c12 [drawing 874]
26 to 50 | COCCNc1nc(-c2nccn2C)nc2sc(-c3ccccc3Cl)c(-c3ccc(OC)cc3)c12 [drawing 876]
